The test system of assay [1] is BV2 microglial cells. The assay is described as follows: CCK8 cytotoxic activity in BV2 microglial cells. It is filed as cell-based. The following applies: compound test concentrations 3.125 to 100 μM, read-out: IC50 Cell Viability. As for the experimental part:
(§1) BV2 microglia cells were purchased from iCell Bioscience Inc. (Shanghai, China). The cells were grown at 37 °C in a humid environment with 5% CO2. In DMEM with 10% fetal bovine serum and 1% penicillin-streptomycin solution, they were maintained alive. The following assays were carried out while the cells were in the exponential growth phase (subcultured 2–3 times).
The cytotoxic activity was assessed using the CCK8 test. In a 96-well plate, BV2 microglial cells (5 × 10^4 cells/well) were placed in each well and incubated for 12 h. After one hour with each substance, LPS (1 μg/mL) was applied to the BV2 microglia cells for an additional 24 h. The CCK8 solution was then incubated with BV2 cells for 1 h at 37 °C. The absorbance at 450 nm was measured using a plate reader (Molecular Devices, San Jose, CA, USA). The cells that had not been treated were assumed to have a 100% optical density.

The subject of assay [2] is NO production induced by LPS in BV2 cells. The assay is described as follows: Inhibition of NO production in LPS-induced BV2 microglial cells (Griess reagent). The format is cell-based. The following applies: for IC50: compound test concentrations 3.125 to 100 μM, mean ± SD (n = 3), read-out: IC50 NO Inhibitory. As for the experimental part: as §1
To determine how much NO is produced, the literature was consulted. Equal parts of the Griess reagent (1% sulfanilamide and 0.1% N-(1-naphthyl) ethylenediamine dihydrochloride in 2.5% phosphoric acid) were combined with the sample-treated cell culture medium for 5 min at room temperature and in the dark. It was determined that the absorbance was at 540 nm using a microplate reader. The trials were conducted simultaneously in triplicate.

Where [3] appears, read: Mus musculus, BV-2, CCK8, LPS 1 μg/mL 24 h.
Setting [4] is: Mus musculus, BV-2, LPS-induced BV2 cells.

Like-named read-outs stand apart in the source and are kept apart here. A value given as a limit tells only on which side of the number the result lay.

A word on the IC50: it is the concentration that gives 50% inhibition. Take `C[C@@H]1O[C@@H](OC[C@H]2O[C@@H](Oc3c(-c4ccc(O)cc4)oc4cc(O)cc(O)c4c3=O)[C@H](O)[C@@H](O)[C@@H]2O)[C@H](O)[C@H](O)[C@H]1O` [Compound 35, kaempferol-3-O-α-L-rhamnopyranosyl-(1→6)-β-D-glucopyranoside]: the half-inhibitory concentration (IC50) in assay [1] (setting [3]) and in assay [2] (setting [4]) was over 100 µM in each case.
`O=c1c(O[C@@H]2O[C@H](CO)[C@@H](O)[C@H](O)[C@H]2O)c(-c2ccc(O)cc2)oc2cc(O)cc(O)c12` [Compound 33, kaempferol-3-O-β-D-glucopyranoside]: the IC50 in assay [1] (setting [3]) and in assay [2] (setting [4]) was over 100 µM in each case.
As for `O=C(/C=C/c1ccc(O)cc1)O[C@H]1C[C@](O)(C(=O)O)C[C@H](O)[C@H]1O` [Compound 3, 3-O-(E)-p-coumaroylquinic acid], the half-inhibitory concentration (IC50) in assay [1] (setting [3]) is over 100 µM; in assay [2] (LPS-induced BV2 cells), 78.5 ± 8.23 µM; in assay [2] (setting [4]) it was under 100 µM.
As for `COc1cc(-c2oc3cc(O)cc(O)c3c(=O)c2O)ccc1O` [Compound 24, isorhamnetin], the IC50 in assay [1] (setting [3]) is over 100 µM. For the same compound, the “inhibitory effects on NO production in comparison with the positive drug indomethacin” value (“inhibitory effects on NO production” for short) in assay [2] (LPS-induced BV2 cells) is recorded as “stronger inhibitory effects”.
As to `O=C(O)/C=C\c1ccc(O)cc1` [Compound 2, (Z)-p-coumaric acid], the IC50 in assay [1] (setting [3]) and in assay [2] (setting [4]) was over 100 µM each time.
As to `C[C@@H]1O[C@@H](OC[C@H]2O[C@@H](Oc3c(-c4ccc(O)cc4)oc4cc(O)cc(O)c4c3=O)[C@H](O[C@@H]3O[C@@H](C)[C@H](O)[C@@H](O)[C@H]3O)[C@@H](O)[C@H]2O)[C@H](O)[C@H](O)[C@H]1O` [Compound 36, kaempferol-3-O-[α-L-rhamnopyranosyl-(1→6)]-[α-L-rhamnopyranosyl-(1→2)]-β-D-galactopyranoside], the concentration for half-maximal inhibition (IC50) in assay [1] (setting [3]) and in assay [2] (setting [4]) was over 100 µM in each case.
Turning to `O=c1c(O)c(-c2ccc(O)cc2)oc2cc(O)cc(O)c12` [Compound 30, kaempferol], the concentration for half-maximal inhibition (IC50) in assay [1] (setting [3]) was over 100 µM. The “inhibitory effects on NO production” value in assay [2] (LPS-induced BV2 cells) is given as “stronger inhibitory effects”.
On to `O=c1c(O[C@@H]2O[C@H](CO)[C@@H](O)[C@H](O)[C@H]2O)c(-c2ccc(O)c(O)c2)oc2cc(O)cc(O)c12` [Compound 19, quercetin-3-O-β-D-glucopyranoside], for which the 50% inhibitory concentration (IC50) in assay [1] (setting [3]) and in assay [2] (setting [4]) was over 100 µM throughout.
Take `COc1cc(/C=C/C(=O)O[C@@H]2C[C@@](O)(C(=O)O)C[C@@H](O)[C@@H]2O)ccc1O` [Compound 15, 3-O-(E)-feruloylquinic acid]: the half-inhibitory concentration (IC50) in assay [1] (setting [3]) and in assay [2] (setting [4]) was over 100 µM throughout.
Consider `O=C(C=Cc1ccc(O)cc1)OC1CC2(O)CC(OC2=O)C1O` (stereo not shown) [Compound 7, 3-O-(E)-p-coumaroylquinide], for which the IC50 in assay [1] (setting [3]) is over 100 µM; in assay [2] (LPS-induced BV2 cells), 94.6 ± 5.62 µM.
For `O=c1c(O[C@@H]2O[C@H](CO)[C@H](O)[C@H](O)[C@H]2O)c(-c2ccc(O)c(O)c2)oc2cc(O)cc(O)c12` [Compound 18, quercetin-3-O-β-D-galactpyranoside], the half-inhibitory concentration (IC50) in assay [1] (setting [3]) and in assay [2] (setting [4]) was over 100 µM each time.
For `O=C(/C=C/c1ccc(O)c(O)c1)O[C@H]1[C@@H](O)C[C@](O)(C(=O)O)C[C@@H]1O` [Compound 13, crypto-chlorogenic acid], the 50% inhibitory concentration (IC50) is over 100 µM in assay [1] (setting [3]), 74.4 ± 6.53 µM in assay [2] (LPS-induced BV2 cells) and under 100 µM in assay [2] (setting [4]).
Consider `O=c1c(O[C@@H]2O[C@H](CO)[C@H](O)[C@H](O)[C@H]2O)c(-c2ccc(O)cc2)oc2cc(O)cc(O)c12` [Compound 32, kaempferol-3-O-β-D-galactopyranoside], for which the half-maximal inhibitory concentration (IC50) in assay [1] (setting [3]) and in assay [2] (setting [4]) was over 100 µM throughout.
For `C[C@@H]1O[C@@H](OC[C@H]2O[C@@H](Oc3c(-c4ccc(O)c(O)c4)oc4cc(O)cc(O)c4c3=O)[C@H](O[C@@H]3O[C@@H](C)[C@H](O)[C@@H](O)[C@H]3O)[C@@H](O)[C@@H]2O)[C@H](O)[C@H](O)[C@H]1O` [Compound 22, quercetin-3-O-α-L-rhamnopyranosyl-(1→2)-[α-L-rhamnopyranosyl-(1→6)-β-D-glucopyranoside]], the concentration for half-maximal inhibition (IC50) in assay [1] (setting [3]) and in assay [2] (setting [4]) was over 100 µM each time.
Take `C[C@@H]1O[C@@H](OC[C@H]2O[C@@H](Oc3c(-c4ccc(O)c(O)c4)oc4cc(O)cc(O)c4c3=O)[C@H](O[C@@H]3O[C@@H](C)[C@H](O)[C@@H](O)[C@H]3O)[C@@H](O)[C@H]2O)[C@H](O)[C@H](O)[C@H]1O` [Compound 23, quercetin-3-O-α-L-rhamnopyranosyl-(1→2)-[α-L-rhamnopyranosyl-(1→6)-β-D-galactpyranoside]]: the half-maximal inhibitory concentration (IC50) in assay [1] (setting [3]) and in assay [2] (setting [4]) was over 100 µM throughout.
Consider `O=C(C=Cc1ccc(O)cc1)OC1CC2(O)CC(OC2=O)C1O` (stereo not shown) [Compound 8, 3-O-(Z)-p-coumaroylquinide], for which the IC50 in assay [1] (CCK8, LPS 1 μg/mL 24 h) is over 100 µM. For the same compound, in assay [2] (LPS-induced BV2 cells), the “inhibitory effects on NO production” value was “stronger inhibitory effects”.
Regarding `COC(=O)[C@@]1(O)C[C@H](OC(=O)/C=C/c2ccc(O)cc2)[C@H](O)[C@@H](O)C1` [Compound 5, 3-O-(E)-p-coumaroylquinic acid methyl ester], the IC50 in assay [1] (setting [3]) is over 100 µM; in assay [2] (LPS-induced BV2 cells), 95.8 ± 7.18 µM; in assay [2] (setting [4]), under 100 µM.
Turning to `O=C(/C=C/c1ccc(O)cc1)O[C@H]1C[C@@](O)(C(=O)O)C[C@H](O)[C@@H]1O` [Compound 11, 5-O-(E)-p-coumaroylquinic acid], the concentration for half-maximal inhibition (IC50) in assay [1] (setting [3]) and in assay [2] (setting [4]) was over 100 µM in each case.
As for `COc1cc(-c2oc3cc(O)cc(O)c3c(=O)c2O[C@@H]2O[C@H](CO)[C@@H](O)[C@H](O)[C@H]2O)ccc1O` [Compound 26, isorhamnetin-3-O-β-D-glucopyranoside], the half-inhibitory concentration (IC50) in assay [1] (setting [3]) and in assay [2] (setting [4]) was over 100 µM throughout.
As for `O=c1c(O)c(-c2ccc(O)c(O)c2)oc2cc(O)cc(O)c12` [Compound 16, quercetin], the half-maximal inhibitory concentration (IC50) in assay [1] (setting [3]) was over 100 µM. The “inhibitory effects on NO production” value in assay [2] (LPS-induced BV2 cells) is reported as “stronger inhibitory effects”.
On to `COc1cc(-c2oc3cc(O)cc(O)c3c(=O)c2O[C@@H]2O[C@H](CO[C@@H]3O[C@@H](C)[C@H](O)[C@@H](O)[C@H]3O)[C@@H](O)[C@H](O)[C@H]2O)ccc1O` [Compound 27], for which the IC50 in assay [1] (setting [3]) and in assay [2] (setting [4]) was over 100 µM in each case.
Turning to `COc1cc(-c2oc3cc(O)cc(O)c3c(=O)c2O[C@@H]2O[C@H](CO[C@@H]3O[C@@H](C)[C@H](O)[C@@H](O)[C@H]3O)[C@H](O)[C@H](O)[C@H]2O[C@@H]2O[C@@H](C)[C@H](O)[C@@H](O)[C@H]2O)ccc1O` [Compound 28, isorhamnetin-3-O-α-L-rhamnopyranosyl-(1→2)-[α-L-rhamnopyranosyl-(1→6)-β-D-galactopyranoside]], the IC50 in assay [1] (setting [3]) is over 100 µM; in assay [2] (LPS-induced BV2 cells), 90.7 ± 10.4 µM; in assay [2] (setting [4]), under 100 µM.
In the case of `COc1cc(-c2oc3cc(O)cc(O)c3c(=O)c2O[C@@H]2O[C@H](CO)[C@H](O)[C@H](O)[C@H]2O)ccc1O` [Compound 25, isorhamnetin-3-O-β-D-galactopyranoside], the IC50 in assay [1] (setting [3]) is over 100 µM. In assay [2] (LPS-induced BV2 cells), the “inhibitory effects on NO production” value is “stronger inhibitory effects”.
For `C[C@@H]1O[C@@H](OC[C@H]2O[C@@H](Oc3c(-c4ccc(O)cc4)oc4cc(O)cc(O)c4c3=O)[C@H](O[C@@H]3O[C@@H](C)[C@H](O)[C@@H](O)[C@H]3O)[C@@H](O)[C@@H]2O)[C@H](O)[C@H](O)[C@H]1O` [Compound 37, kaempferol-3-O-[α-L-rhamnopyranosyl-(1→6)]-[α-L-rhamnopyranosyl-(1→2)]-β-D-glucopyranoside], the IC50 in assay [1] (setting [3]) is over 100 µM; in assay [2] (LPS-induced BV2 cells), 96.1 ± 11.6 µM; in assay [2] (setting [4]), under 100 µM.
Regarding `O=C(/C=C/c1ccc(O)c(O)c1)O[C@H]1C[C@@](O)(C(=O)O)C[C@H](O)[C@@H]1O` [Compound 12, neochlorogenic acid], the half-inhibitory concentration (IC50) in assay [1] (setting [3]) and in assay [2] (setting [4]) was over 100 µM each time.
Turning to `C[C@@H]1O[C@@H](OC[C@H]2O[C@@H](Oc3c(-c4ccc(O)c(O)c4)oc4cc(O)cc(O)c4c3=O)[C@H](O)[C@@H](O)[C@@H]2O)[C@H](O)[C@H](O)[C@H]1O` [Compound 20, quercetin-3-O-rutinoside], the IC50 in assay [1] (setting [3]) and in assay [2] (setting [4]) was over 100 µM throughout.
Regarding `COc1ccc2c(c1)c(CC(=O)O)c(C)n2C(=O)c1ccc(Cl)cc1` [Indomethacin, indomethacin, reference compound], the figures for the IC50 in assay [1] (setting [3]) and in assay [2] (setting [4]) were over 100 µM and 52.6 ± 4.58 µM, respectively.
In the case of `O=C(/C=C\c1ccc(O)cc1)O[C@H]1C[C@](O)(C(=O)O)C[C@H](O)[C@H]1O` [Compound 4, 3-O-(Z)-p-coumaroylquinic acid], the half-inhibitory concentration (IC50) in assay [1] (setting [3]) is over 100 µM; in assay [2] (LPS-induced BV2 cells) it was 70.4 ± 5.86 µM; in assay [2] (setting [4]), under 100 µM.
Turning to `O=C(/C=C/c1ccc(O)cc1)O[C@H]1[C@@H](O)C[C@](O)(C(=O)O)C[C@@H]1O` [Compound 9, 4-O-(E)-p-coumaroylquinic acid], the concentration for half-maximal inhibition (IC50) in assay [1] (setting [3]) and in assay [2] (setting [4]) was over 100 µM in each case.

(Values after article PMC9502271, “An Investigation of the Anti-Depressive Properties of Phenylpropanoids and Flavonoids in Hemerocallis citrina Baroni” (Molecules, 2022).)
